Assay results as given in ChEMBL document CHEMBL3272017, “Adrenergic sulfonanilides. 4. Centrally active beta-adrenergic agonists” (J Med Chem, 1976).
Active and inactive are the calls of the source. The rule behind the calls is not given here.

Assays:
Mus musculus [1] = assay: Reversal of reserpine-induced ptosis in po dosed mouse; type: functional
Cavia porcellus = species on record: Cavia porcellus; assay: Agonist activity at beta-adrenoceptor in guinea pig tracheal spiral assessed as potency for 75% relaxation of spontaneous contraction relative to soterenol; type: tissue-based; details: Trachea
Rattus norvegicus [2] = assay: Antagonism of morphine-induced analgesia in sc dosed rat
Mus musculus [3] = assay: Inhibition of reserpine-induced ptosis in po dosed mouse; type: functional
[4] = Activity at alpha-adrenoceptor in rat seminal vesicle assessed as potency for producing 50% of that of l-epinephrine-induced contraction relative to soterenol; type: tissue-based
Mus musculus [5] = assay: Analgesic activity in sc dosed mouse assessed as reduction in phenylalanine-induced writhing; type: functional
Hypothalamus [6] = assay: Drug uptake in Sprague-Dawley rat hypothalamus at 0.2 mg/kg, ip after 30 mins; type: ADME, organism-based; design: dose 0.2 mg/kg, route intraperitoneal; details: in vivo, 0.5 h
Hypothalamus [7] = assay: Drug uptake in Sprague-Dawley rat hypothalamus at 0.3 mg/kg, ip after 30 mins; type: ADME, organism-based; design: dose 0.3 mg/kg, route intraperitoneal; details: in vivo, 0.5 h
Brain = assay: Drug uptake in Sprague-Dawley rat whole brain at 0.2 mg/kg, ip after 30 mins; type: ADME, organism-based; design: dose 0.2 mg/kg, route intraperitoneal; details: in vivo, 0.5 h
Rattus norvegicus [8] = assay: Antagonism of morphine-induced analgesia in rat at 20 mg/kg, sc; type: functional; design: scale not given: the % may be the effect or the level left
Rattus norvegicus [9] = species on record: Rattus norvegicus; details: Tail
Rattus norvegicus [10] = assay: Analgesic activity in sc dosed rat by tail flick test; type: functional
Rattus norvegicus [11] = species on record: Rattus norvegicus; assay: Anorexiant activity in rat by free feeding method relative to d-amphetamine; type: functional
Canis familiaris = species on record: Canis familiaris; assay: Anorexiant activity in dog by free feeding method relative to d-amphetamine; type: functional, Canis lupus familiaris
Rattus norvegicus [12] = assay: Antagonism of morphine-induced analgesia in rat at 1.2 mg/kg, sc; type: functional, organism-based; design: dose 1.2 mg/kg
Rattus norvegicus [13] = assay: Effect on cAMP level in Sprague-Dawley rat heart at 0.3 mg/kg, sc after 30 mins; type: functional, organism-based; design: dose 0.3 mg/kg
Rattus norvegicus [14] = assay: Induction of cAMP level in Sprague-Dawley rat hypothalamus at 0.3 mg/kg, sc cotreated with 15 mg/kg, sc morphine 30 mins before sacrifice; type: functional, organism-based
Rattus norvegicus [15] = assay: Effect on cAMP level in Sprague-Dawley rat striatum at 0.3 mg/kg, sc after 30 mins; type: functional, organism-based; design: dose 0.3 mg/kg
Rattus norvegicus [16] = assay: Induction of cAMP level in Sprague-Dawley rat hypothalamus at 0.3 mg/kg, sc after 30 mins; type: functional, organism-based; design: dose 0.3 mg/kg
Rattus norvegicus [17] = assay: Effect on cAMP level in Sprague-Dawley rat cortex at 0.3 mg/kg, sc after 30 mins; type: functional, organism-based; design: dose 0.3 mg/kg
Rattus norvegicus [18] = assay: Effect on cAMP level in Sprague-Dawley rat liver at 0.3 mg/kg, sc after 30 mins; type: functional, organism-based; design: dose 0.3 mg/kg
[19] = Blockade of alpha-adrenoceptor in rat seminal vesicle relative to phentolamine; type: tissue-based
[20] = Mus musculus, po, read-out: ED50
[21] = Mus musculus, sc, read-out: ED50

Q: For `CC1(NCC(O)c2ccc(O)c(NS(C)(=O)=O)c2)CC1.Cl` (stereo unspecified), which ED50 (Mus musculus [1]; [20]) is on record?
A: 1.1 mg/kg

Q: And the fold change (FC) (Cavia porcellus)?
A: 2.33

Q: And the ED50 (Rattus norvegicus [2])?
A: 1 mg/kg

Q: And the ED50 (Mus musculus [3]; [20])?
A: 0.52 mg/kg

Q: Which results are given for `CS(=O)(=O)Nc1cc(C(O)CNC2CC2)ccc1O.Cl` (stereo in doubt; 46)?
A: fold change (FC) [4]: 0; ED50 (Mus musculus [5]): >50 mg/kg; ED50 (Mus musculus [3]): 31.3 mg/kg

Q: What does the source list for `CC(C)NCC(O)c1ccc(O)c(NS(C)(=O)=O)c1.Cl` (stereo unspecified) [SOTERENOL HYDROCHLORIDE]?
A: Drug uptake (Hypothalamus [6]): Not Active; Drug uptake (Hypothalamus [7]): Active; Drug uptake (Brain): Not Active

Q: Which results are given for `Oc1ccc(C(O)CNC2CC2)cc1Cl` (stereo unspecified)?
A: ED50 (Mus musculus [5]; [21]): > 6 mg/kg; Activity (Rattus norvegicus [8]; route subcutaneous): 14.5%

Q: What does the source list for `CC(N)Cc1ccccc1.O=S(=O)(O)O` (racemic) [AMPHETAMINE SULFATE]?
A: ED50 (Mus musculus [1]; [20]): 1.94 mg/kg; ED50 (Mus musculus [3]; [20]): 0.67 mg/kg

Q: Which ED50 (Mus musculus [1]; [20]) does the source give for `CS(=O)(=O)Nc1cc(C(O)CNC2CCC2)ccc1O.Cl` (stereo unspecified) here?
A: 24 mg/kg

Q: What about the ED50 (Mus musculus [5]; [21]) of the same compound?
A: > 6 mg/kg

Q: And the fold change (FC) (Cavia porcellus)?
A: 0.36

Q: What about the ED50 (Mus musculus [3]; [20]) of the same compound?
A: 20 mg/kg

Q: Which results are given for `Cc1cc(C(O)CNC2CC2)cc(NS(C)(=O)=O)c1O.Cl` (stereo unspecified)?
A: fold change (FC) [4]: 8.7; ED50 (Mus musculus [1]; [20]): 0.67 mg/kg; Activity (Rattus norvegicus [8]; route subcutaneous): 20.8%; fold change (FC) (Cavia porcellus): 5.8e-05; ED50 (Mus musculus [3]; [20]): 0.15 mg/kg

Q: Which results are given for `CS(=O)(=O)Nc1cc(C(O)CNC2(Cc3ccccc3)CC2)ccc1O.Cl` (stereo unspecified)?
A: ED50 (Mus musculus [1]; [20]): 0.32 mg/kg; fold change (FC) (Cavia porcellus): 0.14; ED50 (Rattus norvegicus [2]): 4.7 mg/kg; ED50 (Mus musculus [3]; [20]): 0.15 mg/kg

Q: For `C[C@H](NC1CC1)[C@H](O)c1ccc(O)c(NS(C)(=O)=O)c1.Cl` (relative stereo), which ED50 (Mus musculus [1]; [20]) is on record?
A: 0.76 mg/kg

Q: What about the Activity (Rattus norvegicus [8]) of the same compound?
A: inactive

Q: And the fold change (FC) (Cavia porcellus)?
A: 0.11

Q: And the ED50 (Mus musculus [3]; [20])?
A: 0.51 mg/kg

Q: For `C=CCN1CC[C@]23c4c5ccc(O)c4O[C@H]2[C@@H](O)C=C[C@H]3[C@H]1C5.Cl` [NALORPHINE HYDROCHLORIDE], which ED50 (Rattus norvegicus [9]) is on record?
A: inactive

Q: What about the ED50 (Mus musculus [5]; [21]) of the same compound?
A: 2.5 mg/kg

Q: What about the ED50 (Rattus norvegicus [2]) of the same compound?
A: 0.37 mg/kg

Q: With `CS(=O)(=O)Nc1cc(CCNC2CC2)ccc1O.Cl` as the compound, how does the ED50 (Mus musculus [1]; [20]) read?
A: 1.5 mg/kg

Q: What about the ED50 (Mus musculus [5]; [21]) of the same compound?
A: 0.62 mg/kg

Q: What about the ED50 (Rattus norvegicus [10]) of the same compound?
A: 2.77 mg/kg

Q: And the fold change (FC) (Cavia porcellus)?
A: 0.002

Q: What about the “fold change (FC)” value (Rattus norvegicus [11]) of the same compound?
A: 5.5

Q: And the ED50 (Rattus norvegicus [2])?
A: 0.21 mg/kg

Q: And the “fold change (FC)” value (Canis familiaris)?
A: 5.5

Q: And the ED50 (Mus musculus [3]; [20])?
A: 3.6 mg/kg

Q: For `Oc1ccc(C(O)CNC2CC2)cc1` (stereo unspecified), which ED50 (Rattus norvegicus [9]) is on record?
A: inactive

Q: What about the ED50 (Mus musculus [5]; [21]) of the same compound?
A: 5.6 mg/kg

Q: And the Activity (Rattus norvegicus [8])?
A: inactive

Q: What about the fold change (FC) (Cavia porcellus) of the same compound?
A: 0.0136

Q: Which fold change (FC) (Cavia porcellus) does the source give for `CS(=O)(=O)Nc1cc(C(O)CNC2CC2)ccc1O` (stereo in doubt; 46) here?
A: 0.0035

Q: What about the Activity (Rattus norvegicus [12]) of the same compound?
A: inactive

Q: For `CS(=O)(=O)Nc1cc(C(O)CNC2CC2)ccc1O` (stereo in doubt; 44), which Activity (Rattus norvegicus [13]) is on record?
A: inactive

Q: What about the Activity (Rattus norvegicus [14]) of the same compound?
A: Active

Q: What about the Activity (Rattus norvegicus [15]) of the same compound?
A: inactive

Q: And the Activity (Rattus norvegicus [16])?
A: Active

Q: What about the Activity (Rattus norvegicus [17]) of the same compound?
A: inactive

Q: And the fold change (FC) (Cavia porcellus)?
A: 0.7

Q: What about the Activity (Rattus norvegicus [18]) of the same compound?
A: inactive

Q: For `CS(=O)(=O)Nc1cc(C(O)CNC2CC2)ccc1O.Cl` (single isomer, unassigned; (-)), which “fold change (FC)” value [4] is on record?
A: 108

Q: What about the ED50 (Mus musculus [1]) of the same compound?
A: 0.23 mg/kg

Q: And the ED50 (Mus musculus [5])?
A: 0.66 mg/kg

Q: What about the ED50 (Mus musculus [3]) of the same compound?
A: 0.175 mg/kg

Q: With `CS(=O)(=O)Nc1cc(C(O)CNC2CC2)ccc1O.Cl` (stereo in doubt; 44) as the compound, how does the “fold change (FC)” value [4] read?
A: 68.8

Q: What about the ED50 (Mus musculus [1]; [20]) of the same compound?
A: 0.255 mg/kg

Q: What about the ED50 (Mus musculus [5]) of the same compound?
A: 0.56 mg/kg

Q: What about the ED50 (Rattus norvegicus [10]) of the same compound?
A: 5 mg/kg

Q: What about the “fold change (FC)” value (Rattus norvegicus [11]) of the same compound?
A: 22

Q: And the ED50 (Rattus norvegicus [2])?
A: 0.275 mg/kg

Q: What about the “fold change (FC)” value (Canis familiaris) of the same compound?
A: 22

Q: And the ED50 (Mus musculus [3])?
A: 0.265 mg/kg

Q: Which ED50 (Mus musculus [5]; [21]) does the source give for `CS(=O)(=O)Nc1cc(C(=O)CNC2CC2)ccc1O.Cl` here?
A: > 6 mg/kg

Q: And the Activity (Rattus norvegicus [8])?
A: inactive

Q: With `CC[C@H](NC1CC1)[C@H](O)c1ccc(O)c(NS(C)(=O)=O)c1.Cl` (relative stereo) as the compound, how does the “fold change (FC)” value [4] read?
A: 0

Q: What about the “fold change (FC)” value [19] of the same compound?
A: 0.000045

Q: And the ED50 (Mus musculus [1]; [20])?
A: 8.9 mg/kg

Q: And the ED50 (Mus musculus [5]; [21])?
A: > 6 mg/kg

Q: What about the Activity (Rattus norvegicus [8]) of the same compound?
A: inactive

Q: What about the fold change (FC) (Cavia porcellus) of the same compound?
A: 0.23

Q: And the ED50 (Mus musculus [3]; [20])?
A: 20 mg/kg
